Measured values reported in the supplement of paper PMC11061612.

Assays:
Alisertib = compound: COc1cc(Nc2ncc3c(n2)-c2ccc(Cl)cc2C(c2c(F)cccc2OC)=NC3)ccc1C(=O)O [Alisertib]; details: max 10 µM
How it was run: (§1)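 Cancer cell lines were seeded into 1536-well plates in 7.5 μl medium (DMEM/F12 or RPMI, 10% FBS), held 24 hours at 37°C and 5% CO2, and dosed for 72 hours with final DMSO typically 0.2%. Luminescence from CellTiter-Glo 2.0, scaled between blank-well and DMSO-well means, served as viability. The single-agent IC50 was obtained from dose-response fits with a non-linear mixed effects model, each fit being a two-parameter logistic curve.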

Carboplatin = compound: C1CC(C1)(C(=O)[O-])C(=O)[O-].N.N.[Pt+2] [Carboplatin]; details: max 10 µM
How it was run: as §1

Lapatinib = compound: CS(=O)(=O)CCNCc1ccc(-c2ccc3ncnc(Nc4ccc(OCc5cccc(F)c5)c(Cl)c4)c3c2)o1 [Lapatinib]; details: max 10 µM
How it was run: as §1

AZD1775 = compound: C=CCn1c(=O)c2cnc(Nc3ccc(N4CCN(C)CC4)cc3)nc2n1-c1cccc(C(C)(C)O)n1 [AZD1775]; details: max 3 µM
How it was run: as §1

Paclitaxel = compound: CC(=O)O[C@H]1C(=O)[C@@]2(C)[C@H]([C@H](OC(=O)c3ccccc3)[C@]3(O)C[C@H](OC(=O)[C@H](O)[C@@H](NC(=O)c4ccccc4)c4ccccc4)C(C)=C1C3(C)C)[C@]1(OC(C)=O)CO[C@@H]1C[C@@H]2O [Paclitaxel]; details: max 3 µM
How it was run: as §1

SG3199 = compound: CC1=CN2[C@@H](C1)C=NC3=CC(=C(C=C3C2=O)OC)OCCCCCOC4=C(C=C5C(=C4)N=C[C@@H]6CC(=CN6C5=O)C)OC [SG3199]; details: max 0.001 µM
How it was run: as §1

Palbociclib = compound: CC(=O)c1c(C)c2cnc(Nc3ccc(N4CCNCC4)cn3)nc2n(C2CCCC2)c1=O [Palbociclib]; details: max 10 µM
How it was run: as §1

Etoposide = compound: COc1cc([C@@H]2c3cc4c(cc3[C@@H](O[C@@H]3O[C@@H]5CO[C@@H](C)O[C@H]5[C@H](O)[C@H]3O)[C@H]3COC(=O)[C@H]23)OCO4)cc(OC)c1O [Etoposide]; details: max 10 µM
How it was run: as §1

Venetoclax = compound: CC1(C)CCC(CN2CCN(c3ccc(C(=O)NS(=O)(=O)c4ccc(NCC5CCOCC5)c([N+](=O)[O-])c4)c(Oc4cnc5[nH]ccc5c4)c3)CC2)=C(c2ccc(Cl)cc2)C1 [Venetoclax]; details: max 1 µM
How it was run: as §1

AZD1390 = compound: CC(C)n1c(=O)n(C)c2cnc3cc(F)c(-c4ccc(OCCCN5CCCCC5)nc4)cc3c21 [AZD1390]; details: max 0.3 µM
How it was run: as §1

Gefitinib = compound: COc1cc2ncnc(Nc3ccc(F)c(Cl)c3)c2cc1OCCCN1CCOCC1 [Gefitinib]; details: max 10 µM
How it was run: as §1

AZD8186 = compound: C[C@@H](Nc1cc(F)cc(F)c1)c1cc(C(=O)N(C)C)cc2c(=O)cc(N3CCOCC3)oc12 [AZD8186]; details: max 10 µM
How it was run: as §1

Dasatinib = compound: CC1=C(C(=CC=C1)Cl)NC(=O)C2=CN=C(S2)NC3=CC(=NC(=N3)C)N4CCN(CC4)CCO [Dasatinib]; details: max 2 µM
How it was run: as §1

Gemcitabine = compound: Nc1ccn([C@@H]2O[C@H](CO)[C@@H](O)C2(F)F)c(=O)n1 [Gemcitabine]; details: max 0.3 µM
How it was run: as §1

Trametinib = compound: CC(=O)Nc1cccc(-n2c(=O)n(C3CC3)c(=O)c3c(Nc4ccc(I)cc4F)n(C)c(=O)c(C)c32)c1 [Trametinib]; details: max 1 µM
How it was run: as §1

Prexasertib = compound: COc1cccc(OCCCN)c1-c1cc(Nc2cnc(C#N)cn2)n[nH]1 [Prexasertib]; details: max 1 µM
How it was run: as §1

Selumetinib = compound: Cn1cnc2c(F)c(Nc3ccc(Br)cc3Cl)c(C(=O)NOCCO)cc21 [Selumetinib]; details: max 10 µM
How it was run: as §1

SN-38 = compound: CCc1c2c(nc3ccc(O)cc13)-c1cc3c(c(=O)n1C2)COC(=O)[C@]3(O)CC [SN-38]; details: max 0.3 µM
How it was run: as §1

AZD5363 = compound: C1CN(CCC1(C(=O)N[C@@H](CCO)C2=CC=C(C=C2)Cl)N)C3=NC=NC4=C3C=CN4 [AZD5363]; details: max 10 µM
How it was run: as §1

AZD2811 = compound: CCN(CCO)CCCOc1ccc2c(Nc3cc(CC(=O)Nc4cccc(F)c4)[nH]n3)ncnc2c1 [AZD2811]; details: max 1 µM
How it was run: as §1

Crizotinib = compound: C[C@@H](Oc1cc(-c2cnn(C3CCNCC3)c2)cnc1N)c1c(Cl)ccc(F)c1Cl [Crizotinib]; details: max 10 µM
How it was run: as §1

[1] = compound: O=C(Nc1ccc2[nH]nc(-c3ccncc3)c2c1)[C@@H]1CCN(CC(=O)N2CCN(c3ccc(-c4ncccn4)cc3)CC2)C1; details: max 5 µM
How it was run: as §1

AZD4320 = compound: CN(CC[C@H](CSC1=CC=CC=C1)NC2=C(C=C(C=C2)S(=O)(=O)NC(=O)C3=CC=C(C=C3)N4CCC(CC4)[C@H](C5=CC=CC=C5C6=CC=C(C=C6)Cl)O)S(=O)(=O)C(F)(F)F)CCO [AZD4320]; details: max 1 µM
How it was run: as §1

5-Fluorouracil = compound: O=c1[nH]cc(F)c(=O)[nH]1 [5-Fluorouracil]; details: max 20 µM
How it was run: as §1

Olaparib = compound: O=C(c1cc(Cc2n[nH]c(=O)c3ccccc23)ccc1F)N1CCN(C(=O)C2CC2)CC1 [Olaparib]; details: max 10 µM
How it was run: as §1

AZD5153 = compound: COc1nnc2ccc(N3CCC(c4ccc(OCCN5CCN(C)C(=O)[C@H]5C)cc4)CC3)nn12 [AZD5153]; details: max 1 µM
How it was run: as §1

SRA737 = compound: N#Cc1cnc(Nc2cc(NC[C@H]3CNCCO3)c(C(F)(F)F)cn2)cn1 [SRA737]; details: max 10 µM
How it was run: as §1

MK-2206 = compound: NC1(c2ccc(-c3nc4ccn5c(=O)[nH]nc5c4cc3-c3ccccc3)cc2)CCC1 [MK-2206]; details: max 10 µM
How it was run: as §1

Savolitinib = compound: C[C@@H](c1ccc2nccn2c1)n1nnc2ncc(-c3cnn(C)c3)nc21 [Savolitinib]; details: max 1 µM
How it was run: as §1

AZD7648 = compound: Cc1cc2ncnn2cc1Nc1ncc2c(n1)n(C1CCOCC1)c(=O)n2C [AZD7648]; details: max 10 µM
How it was run: as §1

Doxorubicin = compound: COc1cccc2c1C(=O)c1c(O)c3c(c(O)c1C2=O)C[C@@](O)(C(=O)CO)C[C@@H]3O[C@H]1C[C@H](N)[C@H](O)[C@H](C)O1 [Doxorubicin]; details: max 1 µM
How it was run: as §1

Taselisib = compound: Cc1nc(-c2cn3c(n2)-c2ccc(-c4cnn(C(C)(C)C(N)=O)c4)cc2OCC3)n(C(C)C)n1 [Taselisib]; details: max 10 µM
How it was run: as §1

AZD6738 = compound: C[C@@H]1COCCN1C2=NC(=NC(=C2)C3(CC3)[S@](=N)(=O)C)C4=C5C=CNC5=NC=C4 [AZD6738]; details: max 10 µM
How it was run: as §1

AZD5991 = compound: Cc1c2c(nn1C)CSCc1cc(n(C)n1)CSc1cc(c3ccccc3c1)OCCCc1c(C(=O)O)n(C)c3c-2c(Cl)ccc13 [AZD5991]; details: max 1 µM
How it was run: as §1

AZD0156 = compound: CN(C)CCCOc1ccc(-c2ccc3ncc4c(c3c2)n(C2CCOCC2)c(=O)n4C)cn1 [AZD0156]; details: max 3 µM
How it was run: as §1

Cell Line | IC50, cell viability 72 h (Alisertib) | IC50, cell viability 72 h (Carboplatin) | IC50, cell viability 72 h (Lapatinib) | IC50, cell viability 72 h (AZD1775) | IC50, cell viability 72 h (Paclitaxel) | IC50, cell viability 72 h (SG3199) | IC50, cell viability 72 h (Palbociclib) | IC50, cell viability 72 h (Etoposide) | IC50, cell viability 72 h (Venetoclax) | IC50, cell viability 72 h (AZD1390) | IC50, cell viability 72 h (Gefitinib) | IC50, cell viability 72 h (AZD8186) | IC50, cell viability 72 h (Dasatinib) | IC50, cell viability 72 h (Gemcitabine) | IC50, cell viability 72 h (Trametinib) | IC50, cell viability 72 h (Prexasertib) | IC50, cell viability 72 h (Selumetinib) | IC50, cell viability 72 h (SN-38) | IC50, cell viability 72 h (AZD5363) | IC50, cell viability 72 h (AZD2811) | IC50, cell viability 72 h (Crizotinib) | IC50, cell viability 72 h [1] | IC50, cell viability 72 h (AZD4320) | IC50, cell viability 72 h (5-Fluorouracil) | IC50, cell viability 72 h (Olaparib) | IC50, cell viability 72 h (AZD5153) | IC50, cell viability 72 h (SRA737) | IC50, cell viability 72 h (MK-2206) | IC50, cell viability 72 h (Savolitinib) | IC50, cell viability 72 h (AZD7648) | IC50, cell viability 72 h (Doxorubicin) | IC50, cell viability 72 h (Taselisib) | IC50, cell viability 72 h (AZD6738) | IC50, cell viability 72 h (AZD5991) | IC50, cell viability 72 h (AZD0156)
CAPAN-2 (Pancreatic Carcinoma) | > 10000 nM | > 10000 nM | > 10000 nM | 2700 nM | > 3000 nM | > 1 nM | > 10000 nM | > 10000 nM | > 1000 nM | > 300 nM | > 10000 nM | > 10000 nM | 210 nM | > 300 nM | > 1000 nM | 646 nM | > 10000 nM | > 300 nM | > 10000 nM | > 1000 nM | > 10000 nM | > 5000 nM | > 1000 nM | > 20000 nM | > 10000 nM | > 1000 nM | > 10000 nM | > 10000 nM | > 1000 nM | > 10000 nM | > 1000 nM | > 10000 nM | > 10000 nM | > 1000 nM | > 3000 nM
CCK-81 (Colorectal Carcinoma) | > 10000 nM | > 10000 nM | 484 nM | 661 nM | 101 nM | > 1 nM | > 10000 nM | > 10000 nM | > 1000 nM | > 300 nM | 997 nM | > 10000 nM | > 2000 nM | 50.3 nM | 208 nM | 10.7 nM | 9240 nM | 76.7 nM | > 10000 nM | > 1000 nM | 8320 nM | 4810 nM | > 1000 nM | 7320 nM | > 10000 nM | 160 nM | 876 nM | > 10000 nM | > 1000 nM | > 10000 nM | > 1000 nM | 1180 nM | 1570 nM | 634 nM | > 3000 nM
NY (Osteosarcoma) | > 10000 nM | > 10000 nM | > 10000 nM | 538 nM | 7.26 nM | > 1 nM | > 10000 nM | > 10000 nM | > 1000 nM | > 300 nM | > 10000 nM | > 10000 nM | > 2000 nM | 41 nM | > 1000 nM | 115 nM | > 10000 nM | 16.1 nM | > 10000 nM | > 1000 nM | > 10000 nM | > 5000 nM | > 1000 nM | > 20000 nM | > 10000 nM | > 1000 nM | 3440 nM | > 10000 nM | > 1000 nM | > 10000 nM | > 1000 nM | > 10000 nM | > 10000 nM | > 1000 nM | > 3000 nM
ONS-76 (Other Solid Carcinomas) | > 10000 nM | > 10000 nM | > 10000 nM | 1190 nM | 66.1 nM | > 1 nM | > 10000 nM | 8960 nM | > 1000 nM | > 300 nM | > 10000 nM | > 10000 nM | > 2000 nM | 257 nM | 23.9 nM | 8.7 nM | 1910 nM | 43.7 nM | > 10000 nM | > 1000 nM | > 10000 nM | 270 nM | > 1000 nM | > 20000 nM | > 10000 nM | 940 nM | 1690 nM | > 10000 nM | > 1000 nM | > 10000 nM | 252 nM | > 10000 nM | 1000 nM | > 1000 nM | > 3000 nM
NCI-H2066 (Squamous Cell Lung Carcinoma) | > 10000 nM | > 10000 nM | > 10000 nM | > 3000 nM | 320 nM | > 1 nM | > 10000 nM | > 10000 nM | > 1000 nM | > 300 nM | > 10000 nM | > 10000 nM | > 2000 nM | > 300 nM | > 1000 nM | > 1000 nM | > 10000 nM | > 300 nM | > 10000 nM | > 1000 nM | > 10000 nM | > 5000 nM | > 1000 nM | > 20000 nM | > 10000 nM | > 1000 nM | > 10000 nM | > 10000 nM | > 1000 nM | > 10000 nM | > 1000 nM | 3920 nM | > 10000 nM | > 1000 nM | > 3000 nM
